Measurements from patent US10519211B2, “Compounds as peptidic GLP1/glucagon/GIP receptor agonists” (SANOFI, priority 2016, dated 2019).

Legend:
[1] = target: T1, human GIP receptor (hGIP-R) (Homo sapiens, UniProt P48546); test: cAMP response (HTRF) of HEK-293 cells stably expressing human GIP receptor; assay type: cell-based; conditions: Table 8; cAMP formation
T1 construct: expressed in transfected cells; host or cells: HEK-293
T1 sequence (P48546 22-466): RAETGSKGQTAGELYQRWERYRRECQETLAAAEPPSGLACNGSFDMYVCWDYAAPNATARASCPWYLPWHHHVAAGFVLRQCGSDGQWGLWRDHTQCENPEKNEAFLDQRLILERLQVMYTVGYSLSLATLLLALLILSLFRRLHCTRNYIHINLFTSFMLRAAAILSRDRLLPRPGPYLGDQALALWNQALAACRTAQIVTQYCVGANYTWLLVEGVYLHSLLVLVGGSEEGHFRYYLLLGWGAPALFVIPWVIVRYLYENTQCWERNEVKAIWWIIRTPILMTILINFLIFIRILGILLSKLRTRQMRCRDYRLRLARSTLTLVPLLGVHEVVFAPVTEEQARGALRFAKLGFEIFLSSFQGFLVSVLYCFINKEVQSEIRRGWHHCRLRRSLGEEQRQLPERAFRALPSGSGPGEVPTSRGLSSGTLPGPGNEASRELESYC
Experimental: cAMP content of cells was determined using a kit from Cisbio Corp. (cat. no. 62AM4PEJ) based on HTRF (Homogenous Time Resolved Fluorescence). For preparation, cells were split into T175 culture flasks and grown overnight to near confluency in medium (DMEM/10% FBS). Medium was then removed and cells washed with PBS lacking calcium and magnesium, followed by proteinase treatment with accutase (Sigma-Aldrich cat. no. A6964). Detached cells were washed and resuspended in assay buffer (1×HBSS; 20 mM HEPES, 0.1% BSA, 2 mM IBMX) and cellular density determined. They were then diluted to 400000 cells/ml and 25 μl-aliquots dispensed into the wells of 96-well plates. For measurement, 25 μl of test compound in assay buffer was added to the wells, followed by incubation for 30 minutes at room temperature.
Potencies of peptidic compounds at the GLP-1, glucagon and GIP receptors were determined by exposing cells expressing human glucagon receptor (hGlucagon R), human GIP receptor (hGIP-R) or human GLP-1 receptor (hGLP-1 R) to the listed compounds at increasing concentrations and measuring the formed cAMP as described in Methods.

[2] = tested on: female, diabetic db/db mice; test: Acute effects after subcutaneous treatment on blood glucose in non-fasting diabetic db/db mice; assay type: in vivo, mouse
Experimental: Female healthy, lean BKS.Cg-(lean)/OlaHsd and diabetes-prone, obese BKS.Cg-+Lepr^db/+Lepr^db/OlaHsd mice were ordered group housed from Envigo RMS Inc., shipped group housed and remained group housed in shoebox caging with wood chip bedding until day 15 of the predose phase. At the study start mice were approximately 12 weeks old.
Mice were housed under vivarium conditions including a 12 h light/dark cycle (light phase 04:00 AM-4:00 PM), room temperatures between 23-26° C. and a relative humidity between 30-70%. All animals had free access to water and Purina Fomulab Diet 5008.
On predose day 9 blood glucose and body mass (approximately between 08:00-10:00 AM) as well as HbA1c measurements were performed. On day 15 of the predose phase animals were assigned to treatment groups (n=8) and to new cages to match mean HbA1c and body masses between all db/db groups. An age-matched lean group was included in the study as a healthy, lean reference.
Prior to day 1 of the dosing phase, the test article was diluted with Phosphate Buffered Saline (PBS, Gibco, without CaCl2 and MgCl2) to a concentration of 1 mg/mL and aliquots of this stock solution were stored at approximately −60° C. On day 1 of the dosing phase the stock aliquot was thawed and the injected test article solution was prepared fresh by diluting it with PBS to achieve the desired concentration.
On Day 1 of the dosing phase db/db mice were either treated once with a s.c. injection of PBS-vehicle or 30 μg/kg test article. The lean reference group was treated once with a s.c. injection of PBS-vehicle. The dosing was initiated and completed between 08:00 and 10:00 AM. The applied volume was 5 ml/kg and the dose was adjusted to the most recent body mass recording of each individual.
Animals had unlimited access to water and feed during the experiment. On day 1 of the dosing phase approximately 5 μL of blood were collected via tail clips at minute −30 and 0 prior to any other inlife activities. At minute 0 mice received a s.c. dose of either PBS-vehicle or 30 μg/kg test article. Further blood samples were harvested at hour 0.25, 0.5, 1, 1.5, 2, 3, 4, 6, 8, and 24 post-dose. Glucose measurements were performed in whole blood using AlphaTRAK glucometers. If the glucose concentrations of two measurements differed by more than 20 mg/dL a third value was recorded. The Area Under the Curve (AUC) for blood glucose was calculated via the trapezoid method and for the duration of the 24 post-dose hours.
Data are depicted as means±SEM. […] A One-Way ANOVA and Tukey Test were used for pairwise multiple comparisons of all groups (n=8/group, deviations from group size are indicated). […] Data from a Non-Diabetic-Vehicle group serve as a reference dataset for the normoglycemic, lean state.
Female, 12 weeks old, healthy, lean BKS.Cg-(lean)/OlaHsd or diabetes-prone, obese BKS.Cg-+Leprdb/+Leprdb/OlaHsd mice were treated once with a s.c. injection of PBS, 30 μg/kg SEQ ID NO: 6 or 30 μg/kg SEQ ID NO: 7. The dosing was initiated and completed between 08:00 and 10:00 AM. The applied volume was 5 ml/kg and the dose was adjusted to the most recent body mass recording of each individual. Diabetic db/db mice were HbA1c- and body mass-matched. The lean reference group was treated once with a s.c. injection of PBS-vehicle.
Animals had unlimited access to water and feed during the experiment. On day 1 of the dosing phase approximately 5 μL of blood were collected via tail clips at minute −30 and 0 prior to any other inlife activities. At minute 0 mice received a s.c. dose of either PBS-vehicle, 30 μg/kg SEQ ID NO: 6 or SEQ ID NO: 7. Further blood samples were harvested at minute 15, 30, 60, 90, 120, 150, 180, 240, 360, and 480 post-dose. Glucose measurements were performed in whole blood using AlphaTRAK glucometers. If the glucose concentrations of two measurements differed by more than 20 mg/dL a third value was recorded. […]

SMILES | EC50 [1] [pM] | Blood glucose AUC compared to the Diabetic-Vehicle group ([2]; 30 μg/kg s.c. once, 24 h, in words) | Time post dose at which lowest blood glucose levels were reached ([2]; 30 μg/kg s.c. once, fed db/db mice) | Blood glucose profile following single treatment ([2]; 30 μg/kg s.c. once, fed db/db mice, in words) | Plasma glucose area under the curve (mmol/L in 24 h) ([2]; Table 10, once 30 μg/kg s.c., fed db/db mice, mean ± SEM)
CCCCCCCCCCCCCCCC(=O)N[C@@H](CCC(=O)N[C@@H](CCC(=O)NCCCC[C@H](NC(=O)[C@H](CC(C)C)NC(=O)[C@H](CCCCN)NC(=O)[C@H](CO)NC(=O)[C@H](CC(C)C)NC(=O)[C@H](CC(=O)O)NC(=O)[C@H](CO)NC(=O)[C@@H](NC(=O)[C@H](Cc1ccccc1)NC(=O)[C@@H](NC(=O)CNC(=O)[C@H](CCC(N)=O)NC(=O)C(C)(C)NC(=O)[C@@H](N)Cc1c[nH]cn1)[C@@H](C)O)[C@@H](C)O)C(=O)N[C@@H](CCC(=O)O)C(=O)N[C@@H](CCCCN)C(=O)N[C@@H](CCC(N)=O)C(=O)N[C@@H](CCCNC(=N)N)C(=O)N[C@@H](CCC(N)=O)C(=O)NC(C)(C)C(=O)N[C@@H](CCC(=O)O)C(=O)N[C@@H](Cc1ccccc1)C(=O)N[C@H](C(=O)N[C@@H](CCC(=O)O)C(=O)N[C@@H](Cc1c[nH]c2ccccc12)C(=O)N[C@@H](CC(C)C)C(=O)N[C@@H](CCCCN)C(=O)N[C@@H](C)C(=O)NCC(=O)NCC(=O)N1CCC[C@H]1C(=O)N1CCC[C@H]1C(=O)N[C@@H](CO)C(=O)NC(C)(C)C(=O)N[C@@H](CCCCN)C(=O)N1CCC[C@H]1C(=O)N1CCC[C@H]1C(=O)N1CCC[C@H]1C(=O)N[C@@H](CCCCN)C(N)=O)[C@@H](C)CC)C(=O)O)C(=O)O [SEQ ID NO: 6, H-Aib-Q-G-T-F-T-S-D-L-S-K-L-K[gGlu-gGlu-Palm]-E-K-Q-R-Q-Aib-E-F-I-E-W-L-K-A-G-G-P-P-S-Aib-K-P-P-P-K-NH2] | 7.9 | statistically significant reduction in the blood glucose AUC | approximately 8 hours | acute decrease in blood glucose concentrations | +430.70 ± 26.41 mmol/L in 24 h
CCCCCCCCCCCCCCCC(=O)N[C@@H](CCC(=O)N[C@@H](CCC(=O)NCCCC[C@H](NC(=O)[C@H](CC(C)C)NC(=O)[C@H](CCCCN)NC(=O)[C@H](CO)NC(=O)[C@H](CC(C)C)NC(=O)[C@H](CC(=O)O)NC(=O)[C@H](CO)NC(=O)[C@@H](NC(=O)[C@H](Cc1ccccc1)NC(=O)[C@@H](NC(=O)CNC(=O)[C@H](CCC(N)=O)NC(=O)C(C)(C)NC(=O)[C@@H](N)Cc1c[nH]cn1)[C@@H](C)O)[C@@H](C)O)C(=O)N[C@@H](CCC(=O)O)C(=O)N[C@@H](CCC(=O)O)C(=O)N[C@@H](CCC(N)=O)C(=O)N[C@@H](CCCNC(=N)N)C(=O)N[C@@H](CCC(N)=O)C(=O)NC(C)(C)C(=O)N[C@@H](CCC(=O)O)C(=O)N[C@@H](Cc1ccccc1)C(=O)N[C@H](C(=O)N[C@@H](CCC(=O)O)C(=O)N[C@@H](Cc1c[nH]c2ccccc12)C(=O)N[C@@H](CC(C)C)C(=O)N[C@@H](CCCCN)C(=O)N[C@@H](C)C(=O)NCC(=O)NCC(=O)N1CCC[C@H]1C(=O)N1CCC[C@H]1C(=O)N[C@@H](CO)C(=O)NC(C)(C)C(=O)N[C@@H](CCCCN)C(=O)N1CCC[C@H]1C(=O)N1CCC[C@H]1C(=O)N1CCC[C@H]1C(=O)N[C@@H](CCCCN)C(N)=O)[C@@H](C)CC)C(=O)O)C(=O)O [SEQ ID NO: 9, H-Aib-Q-G-T-F-T-S-D-L-S-K-L-K[gGlu-gGlu-Palm]-E-E-Q-R-Q-Aib-E-F-I-E-W-L-K-A-G-G-P-P-S-Aib-K-P-P-P-K-NH2] | 5.6 |  |  |  | 
